What was measured:
[1] = Inhibition of NADH-ubiquinone oxidoreductase activity of electron transport protein complex 1 in submitochondrial particles of bovine heart; parameters: species or system Bos taurus
[2] = Inhibition of NADH-oxidase activity of electron transport protein complex 1 in submitochondrial particles of bovine heart; parameters: species or system Bos taurus

Row | SMILES | IC50 [1] [nM] | IC50 [2] [nM]
1 | CCCCCCCCCC[C@H](O)[C@H]1CC[C@H]([C@H]2CC[C@H]([C@H](O)CCCC/C(CCCCCCCC3=C[C@H](C)OC3=O)=N\O)O2)O1 | 0.68 | 0.34
2 | CCCCCCCCCC[C@H](O)[C@H]1CC[C@H]([C@H]2CC[C@H]([C@H](O)CCCCCCCCCCCCC3=C[C@H](C)OC3=O)O2)O1 [BULLANIN] | 0.44 | 0.32
3 | CCCCCCCCCC[C@H](O)[C@H]1CC[C@H]([C@H]2CC[C@H]([C@H](O)CCCCC(=O)CCCCCCCC3=C[C@H](C)OC3=O)O2)O1 [GUANACONE] | 2.07 | 1.52
4 | CCCCC[C@H](O)CCCC[C@H](O)[C@H]1CC[C@H]([C@H]2CC[C@H]([C@H](O)CCCCCCCCCCCCC3=C[C@H](C)OC3=O)O2)O1 [MOTRILIN] | 0.81 | 0.41
5 | CCCCCCCCCC[C@H](O)[C@H]1CC[C@H]([C@H]2CC[C@H]([C@H](O)CCCCC(O)CCCCCCCC3=C[C@H](C)OC3=O)O2)O1 (some centres undefined) | 1.9 | 0.95
6 | CCCCCCCCCC[C@H](O)[C@H]1CC[C@H]([C@H]2CC[C@H]([C@H](O)CCCCCCCCCCC(O)CC3=C[C@H](C)OC3=O)O2)O1 (some centres undefined) [rolliniastatin-2] | 0.61 | 0.51
7 | CCCCCCCCCC[C@H](O)[C@@H]1CC[C@H]([C@H]2CC[C@@H]([C@H](O)CCCCCCCC[C@@H](O)CC3=C[C@H](C)OC3=O)O2)O1 [ROLLIMEMBRIN] | 0.83 | 0.33

From ChEMBL document CHEMBL1150931, “10-Oximeguanacone, the first nitrogenated acetogenin derivative found to be a potent inhibitor of mitochondrial complex I” (J Nat Prod, 1998)
